Source: US20240115556A1, “A JMJD6 TARGETING AGENT FOR TREATING PROSTATE CANCER” (Cancer Research Technology Limited, priority 2020, published 2024)

Columns and labels:
[1] = at least in some cell types; cited from earlier work
[2] = tested on: AR-V7 in 22Rv1 PC cells; assay: AR-V7 protein (WB) and mRNA (qPCR) levels in 22Rv1 PC cells; type: cell-based; conditions: 2,4-PDCA for 48 hours
Description: (§1) All cell lines were purchased from LGC Standards/ATCC unless otherwise specified and grown in recommended media at 37° C. in 5% CO2. Short tandem repeat profiling was performed using the Cell Authentication Service by Eurofins Medigenomix to ensure the quality and integrity of the cell lines used. Cells lines were tested for mycoplasma after thawing, then regularly every 6-8 weeks during culture using the Venor®GeM Advance Mycoplasma Detection Kit (Minerva Biolabs). Early passages were thawed every 3-months (after approximately 15-20 passages). Small interfering RNA (siRNA): All siRNAs were ONTARGETplus pools (Dharmacon; GE heathcare), and used in combination with 0.4% RNAiMax transfection reagent (ThermoFisher Scientific) as per manufacturer's instructions. siRNA experiments were performed at 50 nM, unless otherwise specified, for 72-hours. […]
(§2) 0.45 μm pore size (Millipore). […] Chemiluminescence was then detected using the Chemidoc Touch imaging system (BioRad). Quantitative Reverse Transcription Polymerase Chain Reaction (qRT-PCR)
(§3) The RNeasy Plus Mini kit (Qiagen) was used to extract cellular RNA as per manufacturer's instructions. […] The fold change in mRNA expression levels was calculated by the comparative Ct method, using the formula 2-(-(ΔΔCt).

[3] = target: T1, JMJD6 (1-362) (Homo sapiens, UniProt Q6NYC1); assay: LC-MS assay for JMJD6 inhibition (hydroxylation of LUC7L2 peptide substrate); type: biochemical; parameters: dose or concentration left out as unconfirmed; conditions: 8-point 3-fold serial dilution of 2,4-PDCA, 2 hours at 37° C.
T1 construct: by JMJD6 (1-362, prepared as reported); made in house
Text: Liquid Chromatography Mass Spectrometry (LC-MS) assays for JMJD6 inhibition by 2,4-PDCA Hydroxylation of a 12-mer peptide substrate (NPKRSRSREHRR, prepared with a C-terminal amide) of the LUC7L2 pre-mRNA splicing factor by JMJD6 (1-362, prepared as reported) was monitored by liquid chromatography mass spectrometry (LC-MS) using an Agilent 1290 infinity II LC system equipped with an Agilent 1290 infinity binary pump and coupled to an Agilent 6550 Accurate Mass Quadrupole Time of Flight (Q-TOF) mass spectrometer. Note this construct has hydroxylation but not demethylation activity. All JMJD61-362 enzyme reactions were performed in 50 mM Tris.Cl pH 7.5 (prepared fresh each day) at 37° C. […] Peptide ionization was monitored in the positive ion electrospray ionisation (ESI) mode with a drying gas temperature of 280° C., a drying gas flow rate of 13 L/minute, nebulizer gas pressure of 40 PSI, sheath gas temperature of 350° C., sheath gas flow rate of 12 L/min and a nozzle voltage of 1000V. […] The % conversion of the peptide substrate to the +16 hydroxylated peptide was calculated using the equation: % conversion=100×hydroxylated/(hydroxylated+non-hydroxylated peptide). The IC50 for 2,4-PDCA was determined from non-linear regression curve fitting using GraphPad prism 6.0.

[4] = tested on: JMJD6 protein in LNCaP95 cells; assay: WB of JMJD6 protein in LNCaP95 cells treated with I-BET151; type: cell-based; conditions: I-BET151 for 48 hours
Description: Subsequent to cell lysis with RIPA buffer (Pierce) supplemented with cOmplete™ EDTA-free Protease Inhibitor Cocktail (Roche), protein extracts (20 μg) were separated by electrophoresis on 4-12% NuPAGE® Bis-Tris gel plates (Invitrogen) prior to transfer onto Immobilon-P™ PVDF membranes of 0.45 μm pore size (Millipore). Membranes were then incubated sequentially with primary and then secondary antibody in 5% milk and tris-buffered saline (TBS) and Tween®20 (Sigma Aldrich). Chemiluminescence was then detected using the Chemidoc Touch imaging system (BioRad). Quantitative Reverse Transcription Polymerase Chain Reaction (qRT-PCR)

[5] = tested on: AR-V7 in LNCaP95 PC cells; assay: AR-V7 protein (WB) and mRNA (qPCR) levels in LNCaP95 PC cells; type: cell-based; conditions: I-BET151 for 48 hours
Description: as §1, §2, §3

[6] = tested on: VCaP PC cells; assay: CellTiter-Glo Luminescent Cell Viability Assay, VCaP; type: cell-based; conditions: siRNA 25 nM; Enzalutamide; after 5-days; vs control siRNA + DMSO 0.1%
Description: Cells were plated in 48-well tissue culture plates and treated as indicated the following day, then grown for 6-days or until 80-90% confluence. To quantify growth of LNCaP, LNCaP95, 22Rv1 and PNT2 cell lines, cells were fixed with 10% (w/v) aqueous trichloroacetic acid and incubated at 4° C. for 30-minutes prior to washing and air-drying. Subsequently cells were stained with sulforhodamine B (SRB) for 30-minutes prior to excess dye removal with 1% (v/v) aqueous acetic acid and further air-drying. Following this, protein-bound dye was dissolved in 10 mM Tris base solution, transferred to a 96-wellplate, and optical density determined at 510 nm using the Synergy HT microplate reader (BioTek). VCaP cell growth assays were analyzed using CellTiter-Glo® Luminescent Cell Viability Assay (Promega) as per manufacturer instructions, and luminescence quantified using the Synergy HT microplate reader (BioTek).

[7] = tested on: AR-V7 in VCaP PC cells; assay: AR-V7 protein (WB) and mRNA (qPCR) levels in VCaP PC cells; type: cell-based; conditions: 72 hour, siRNA 25 nM, Enzalutamide 10 µM
Description: as §1, §2, §3

[8] = tested on: 12-mer peptide substrate of the LUC7L2 pre-mRNA splicing factor

O=C(O)c1ccnc(C(=O)O)c1 [2,4-PDCA, pyridine-2,4-dicarboxylic acid]
permeability [1]: low | AR-V7 protein levels [2]: dose-dependent reduction | isolated JMJD6-mediated lysyl-5-hydroxylation of LUC7-Like (LUC7L) [3]: dose-dependent reduction

COc1cc2c(cc1-c1c(C)noc1C)ncc1[nH]c(=O)n([C@H](C)c3ccccn3)c12 [I-BET151]
JMJD6 protein expression [4]: dose-dependent reduction | AR-V7 protein expression [5]: dose-dependent reduction

CNC(=O)c1ccc(N2C(=S)N(c3ccc(C#N)c(C(F)(F)F)c3)C(=O)C2(C)C)cc1F [enzalutamide]
VCaP PC cell viability [6]: reduced | AR-V7 protein (WB) levels [7]: increase significantly

JMJD6 (1-362)
lysyl-5-hydroxylation of the peptide substrate (LC-MS, % conversion to the +16 hydroxylated peptide) [8]: 2,4-PDCA caused dose-dependent reduction in isolated JMJD6-mediated lysyl-5-hydroxylation of the known downstream target LUC7-Like (LUC7L)
